Article PMC7704979, “Effect of the versatile bifunctional chelator AAZTA^5 on the radiometal labelling properties and the in vitro performance of a gastrin releasing peptide receptor antagonist” (EJNMMI Radiopharmacy and Chemistry, 2020)

Key:
GRPr = biological target: T1, GRPr (Homo sapiens, UniProt P30550); assay: Saturation binding studies on intact PC3 cells; details: for Bmax (concentration of the radiotracer required to saturate the receptors): intact PC3 cells, 4 °C, 120 min, normalized for 1 × 10^6 cells per well
T1 construct: For receptor saturation analysis, PC3 cells were seeded at a density of 0.8–1 million cells per well; endogenous in cells; host or cells: PC3 (human prostate adenocarcinoma cell line), intact cells
T1 sequence (P30550 whole entry): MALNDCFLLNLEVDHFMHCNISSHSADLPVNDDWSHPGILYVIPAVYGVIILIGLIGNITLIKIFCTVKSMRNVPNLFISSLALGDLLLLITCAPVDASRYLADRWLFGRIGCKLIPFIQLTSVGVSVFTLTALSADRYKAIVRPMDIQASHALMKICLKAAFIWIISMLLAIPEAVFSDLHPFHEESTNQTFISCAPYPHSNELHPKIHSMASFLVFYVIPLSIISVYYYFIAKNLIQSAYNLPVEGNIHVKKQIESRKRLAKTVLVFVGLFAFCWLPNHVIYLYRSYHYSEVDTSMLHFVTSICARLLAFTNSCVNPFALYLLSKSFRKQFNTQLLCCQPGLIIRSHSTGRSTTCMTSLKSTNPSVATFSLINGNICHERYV
Method: For receptor saturation analysis, PC3 cells were seeded at a density of 0.8–1 million cells per well in 6-well plates and incubated overnight with medium (DMEM: F12 (1:1) containing 1% FBS, 100 U/mL penicillin and 100 μg/mL streptomycin). The next day, the medium was removed, the cells washed and incubated for 1 h at 37 °C with fresh medium. […] After the addition of the radioligands, the cells were incubated for 120 min at 4 °C. Non-specific binding was determined in the presence of Tyr^4-Bombesin at a final concentration of 1 μM. Then the cells were washed twice with ice-cold PBS, followed by solubilization with 1 N NaOH and the cell-associated radioactivity was measured using a gamma-counter. Specific binding was plotted against the total molar concentration of the added radiotracer. The Kd values and the concentration of the radiotracer required to saturate the receptors (Bmax) were determined by nonlinear regression using GraphPad (Prism 8 Graph Pad Software, San Diego, CA). For all the cell studies the values are normalized for 1 × 10^6 cells per well and all data are from two independent experiments with triplicates in each experiment.

PC3 cells [1] = assay: Internalization studies in PC3 cells; format: cell-based, human; details: 37 °C; for specifically internalized activity / total cell associated uptake: 6 h; for total cell associated uptake: % of applied radioactivity
Method: For internalization experiments, PC3 cells were seeded into 6-well plates and treated as described above. […] To determine nonspecific membrane binding and internalization, excess of Tyr^4-Bombesin (final concentration 1 μΜ) was added to selected wells. At each time point, the internalization was stopped by removing the medium and washing the cells twice with ice-cold PBS. To remove the receptor-bound radioligand, an acid wash was carried out twice with a 0.1 M glycine buffer pH 2.8 for 5 min on ice. Finally, cells were solubilized with 1 N NaOH. The radioactivity of the culture medium, the receptor-bound, and the internalized fractions were measured in a γ-counter.

PC3 cells [2] = assay: In vitro therapy study, trypan blue exclusion viability of PC3 cells; format: cell-based, human; details: monotherapy (rapamycin 10 nM or ^177Lu-labelled LF1 1.85 MBq), 72 h
Method: For the in vitro therapy studies, PC3 cells were seeded at a density of 50,000–100,000 cells (depending on the investigating time point: 100000, 75,000 and 50,000 cells for 24, 48, 72 h respectively) in 12-well plates and incubated overnight with cultivation medium at 37 °C and 5% CO2. The next day, the medium was removed, the cells washed, and culture medium containing either rapamycin (10 nM, dissolved in dimethyl sulfoxide (DMSO)) or DMSO (control, the final concentration of DMSO in the culture medium was 0.5%) was added. The plates were incubated at 37 °C and 5% CO2 for a period of 6 h. Afterwards, the medium containing rapamycin or DMSO was removed and fresh medium was added in each well. […] The viability of the cells was accessed by the trypan blue exclusion assay after incubation at 37 °C and 5% CO2 for 24, 48 and 72 h. The experiment was performed twice in triplicate.

With `CC(C)C[C@H](NC(=O)CC(O)[C@H](CC(C)C)NC(=O)[C@H](Cc1c[nH]cn1)NC(=O)CNC(=O)[C@@H](NC(=O)[C@H](C)NC(=O)[C@H](Cc1c[nH]c2ccccc12)NC(=O)[C@H](CCC(N)=O)NC(=O)[C@@H](Cc1ccccc1)NC(=O)CN1CCC(NC(=O)CCCCC2(N(CC(=O)O)CC(=O)O)CN(CC(=O)O)CCN(CC(=O)O)C2)CC1)C(C)C)C(N)=O` (some centres unmarked) [^68Ga-labelled LF1, metal not drawn] the “Bmax (concentration of the radiotracer required to saturate the receptors)” value (“Bmax” below) (GRPr; listed as 68/natGa-LF1) was 0.4 ± 0.02 nM, the “factor of lower affinity compared to ^111/natIn-LF1” value (GRPr; ratio of Kd values, PC3 cells) was ~3 and the internalized activity (PC3 cells [1]; 4 h) was 2.8 ± 0.5%.
With `CC(C)C[C@H](NC(=O)CC(O)[C@H](CC(C)C)NC(=O)[C@H](Cc1c[nH]cn1)NC(=O)CNC(=O)[C@@H](NC(=O)[C@H](C)NC(=O)[C@H](Cc1c[nH]c2ccccc12)NC(=O)[C@H](CCC(N)=O)NC(=O)[C@@H](Cc1ccccc1)NC(=O)CN1CCC(NC(=O)CN2CCN(CC(=O)O)CCN(CC(=O)O)CCN(CC(=O)O)CC2)CC1)C(C)C)C(N)=O` (some centres unmarked) [^177/natLu-RM2, metal not drawn, reference compound] the “Bmax” value (GRPr) was 0.8 ± 0.03 nM.
`CO[C@H]1C[C@@H]2CC[C@@H](C)[C@@](O)(O2)C(=O)C(=O)N2CCCC[C@H]2C(=O)O[C@H]([C@H](C)C[C@@H]2CC[C@@H](O)[C@H](OC)C2)CC(=O)[C@H](C)/C=C(\C)[C@@H](O)[C@@H](OC)C(=O)[C@H](C)C[C@H](C)/C=C/C=C/C=C/1C` [rapamycin] was tested, and the cell viability (PC3 cells [2]) was “approx. 50%”.
For `CC(C)C[C@H](NC(=O)CC(O)[C@H](CC(C)C)NC(=O)[C@H](Cc1c[nH]cn1)NC(=O)CNC(=O)[C@@H](NC(=O)[C@H](C)NC(=O)[C@H](Cc1c[nH]c2ccccc12)NC(=O)[C@H](CCC(N)=O)NC(=O)[C@@H](Cc1ccccc1)NC(=O)CN1CCC(NC(=O)CCCCC2(N(CC(=O)O)CC(=O)O)CN(CC(=O)O)CCN(CC(=O)O)C2)CC1)C(C)C)C(N)=O` (some centres unmarked) [^111In-labelled LF1, metal not drawn], the “Bmax” value (GRPr; listed as 111/natIn-LF1) was 0.6 ± 0.06 nM, the specifically internalized activity (PC3 cells [1]) was 9.2 ± 0.5% and the “total cell associated uptake” value (PC3 cells [1]) was 38.3 ± 2.5%.
For `CC(C)C[C@H](NC(=O)CC(O)[C@H](CC(C)C)NC(=O)[C@H](Cc1c[nH]cn1)NC(=O)CNC(=O)[C@@H](NC(=O)[C@H](C)NC(=O)[C@H](Cc1c[nH]c2ccccc12)NC(=O)[C@H](CCC(N)=O)NC(=O)[C@@H](Cc1ccccc1)NC(=O)CN1CCC(NC(=O)CCCCC2(N(CC(=O)O)CC(=O)O)CN(CC(=O)O)CCN(CC(=O)O)C2)CC1)C(C)C)C(N)=O` (some centres unmarked) [^177Lu-labelled LF1, metal not drawn], the “Bmax” value (GRPr; listed as 177/natLu-LF1) was 0.8 ± 0.05 nM, the specifically internalized activity (PC3 cells [1]) was 8.9 ± 0.8% and the “total cell associated uptake” value (PC3 cells [1]) was 34.5 ± 2.3%.
